Test results taken from patent publication US20080248134A1, “Oral compositions, use and combinations of N-[2-(dimethylamino)ethyl]-2,6 dimethyl-1-oxo-1,2-dihydrobenzo[b]-1,6-naphthyridine-4-carboxamide and closely related analogues thereof” (Auckland Uniservices Limited, priority 2005, published 2008).

Experiments:
[1] = Plasma and tissue pharmacokinetics; type: in vivo, mice
Method: Plasma and tissue pharmacokinetics of the compound of Formula II, were compared following intraperitoneal administration at a dose of 8.9 mg/kg body weight. Mice were terminally anaesthetised at various times up to 75 hours after drug administration and tissue and blood was taken for preparation of samples. Plasma and tissue concentrations of the compound of Formula II were measured by high performance liquid chromatography-mass spectrophometry. The results are shown in FIG. 8, the vertical bars showing the standard deviation of the mean values from three mice per time point. The concentration of drug in plasma is very low on this scale (<100 nmol/kg), implying a high ratio of the concentration of cell-associated drug to that of external drug
Plasma and tissue pharmacokinetics, were further investigated following intraperitoneal administration of the compound of Formula II at a dose of 8.9 mg/kg. Mice were terminally anaesthetised at various times up to 75 hours after drug administration and tissue and blood was taken for preparation of samples. Plasma and tissue concentrations of the compound of Formula II were measured by high performance liquid chromatography-mass spectrophometry. The results are shown in FIG. 9, the vertical bars showing the standard deviation of the mean values from three mice per time point. The concentration differential (ie the slope of each plot) indicates the half life of the compound of Formula II in each tissue type and plasma. The half life of the compound of Formula II in various tissue types including liver, kidney, brain, heart and plasma, calculated from points on the concentration time curve, is approximately three hours. The half life of the compound of Formula II in tumour tissue, calculated from points on the concentration time curve, is approximately 9 hours. This is approximately a three-fold increase in the concentration differential in tumour tissue to non-tumour tissue and plasma concentration of Formula II. This effectively leads to an accumulation of the compound of Formula II in tumour tissue relative to other tissue.
The plasma and tissue pharmacokinetics of a compound of Formula II, were also compared with several well known cancer therapies as shown in FIG. 10. The analytical methods used to obtain data for other therapies varies and was taken from the literature. The AUC (area under the concentration-time curve) values of the compound of Formula II show approximately a 6-7 fold increase in concentration of Formula II in tumour tissue over liver tissue. The AUC values in plasma are negligible. A longer half life (higher concentration differential) in a particular tissue, leads to a larger AUC value (area under the concentration versus time curve). The AUC values provide an indication of the amount of each compound accumulated in a particular tissue or plasma over time.
The ability of different anticancer drugs to be retained selectively in tumour tissue can also be conveniently compared as the ratio of AUC values for a normal tissue versus a tumour tissue. […] Cancer Chemother Pharmacol. 1996; 38: 417-24), amsacrine and asulacrine (Kestell P, Paxton J W, Evans P C, Young D, Jurlina J L, Robertson I G C, Baguley B C. Disposition of amsacrine and its analogue 9-((2-methoxy-4-[(methylsulfonyl)-amino]phenyl)amino)-N,5-dimethyl-4-acridinecarboxamide (CI-921) in plasma, liver, and Lewis lung tumors in mice. Cancer Res 1990; 50: 503-508) and DACA (Kestell P, Dunlop I, McCrystal M R, Evans B D, Paxton J W, Gamage R S K A, Baguley B C. Plasma pharmacokinetics of DACA (N-[2-(dimethylamino)-ethyl]-acridine-4-carboxamide) in a phase I trial. Cancer Chemother Pharmacol 1999; 44: 45-50). Similar analytical methods, employing high performance liquid chromatography, were used. […]

[2] = test system: NZM3; assay: Human tumour xenograft; type: in vivo; design: key to Activity: Active: NCI Criterion for activity tumour volume T/C ≦ 40%; Inactive: NCI Criterion for activity tumour volume T/C ≦ 40%; settings: NZM3, Melanoma
Method: (§1) The compound of Formula II was evaluated in a number of xenografts using cell lines derived from cervical, endometrial, lung and colon carcinomas, leukaemia and melanoma (Table 3). These studies indicate that the compound according to the present invention has significant activity in xenografts.

[3] = test system: NZM4; assay: Human tumour xenograft; type: in vivo; design: key to Activity: Active: NCI Criterion for activity tumour volume T/C ≦ 40%; Inactive: NCI Criterion for activity tumour volume T/C ≦ 40%; settings: NZM4, Melanoma
Method: as §1

[4] = test system: NZC1; assay: Human tumour xenograft; type: in vivo; design: key to Activity: Active: NCI Criterion for activity tumour volume T/C ≦ 40%; Inactive: NCI Criterion for activity tumour volume T/C ≦ 40%; settings: NZC1, Cervix
Method: as §1

[5] = test system: NZM10; assay: Human tumour xenograft; type: in vivo; design: key to Activity: Active: NCI Criterion for activity tumour volume T/C ≦ 40%; Inactive: NCI Criterion for activity tumour volume T/C ≦ 40%; settings: NZM10, Melanoma
Method: as §1

[6] = test system: NZEN1; assay: Human tumour xenograft; type: in vivo; design: key to Activity: Active: NCI Criterion for activity tumour volume T/C ≦ 40%; Inactive: NCI Criterion for activity tumour volume T/C ≦ 40%; settings: NZEN1, Endometrium
Method: as §1

[7] = test system: H460; assay: Human tumour xenograft; type: in vivo; design: key to Activity: Active: NCI Criterion for activity tumour volume T/C ≦ 40%; Inactive: NCI Criterion for activity tumour volume T/C ≦ 40%; settings: H460, Lung
Method: as §1

[8] = test system: NZMp1; assay: Human tumour xenograft; type: in vivo; design: key to Activity: Active: NCI Criterion for activity tumour volume T/C ≦ 40%; Inactive: NCI Criterion for activity tumour volume T/C ≦ 40%; settings: NZMp1, Melanoma
Method: as §1

[9] = test system: Jurkat LA; assay: Human tumour xenograft; type: in vivo; design: key to Activity: Active: NCI Criterion for activity tumour volume T/C ≦ 40%; Inactive: NCI Criterion for activity tumour volume T/C ≦ 40%; settings: Leukaemia
Method: as §1

[10] = test system: colon 38 tumours; assay: Response of colon 38 tumours in immunocompetent and Rag1 immunodeficient mice; type: in vivo
Method: A single dose of 5.9 mg/kg of the compound of Formula II was administered intraperitoneally to immunocompetent mice in A, while a 5.9 mg/kg dose on days 0 and 7 was administered to Rag 1 immunodeficient mice (see FIG. 13). […] Initial tumour response (apoptosis induction) is similar in normal and immunosuppressed mice. The compound of Formula II appears to induce a change in tumour cells that activates a T-cell mediated response leading to tumour regression. This dependence on T-cells for response might explain why only moderate activity of the compound of Formula II is found in xenografts.

[11] = intraperitoneal 8.9 mg/kg, mice
[12] = P53 not known, tumour volume T/C

Cc1cccc2cc3c(=O)n(C)cc(C(=O)NCCN(C)C)c3nc12 [Formula II, N-[2-(dimethylamino)ethyl]-2,6 dimethyl-1-oxo-1,2-dihydrobenzo[b]-1,6-naphthyridine-4-carboxamide]
ratio of AUC values (tumour/liver) ([1]; compared with doxorubicin, amsacrine, asulacrine and DACA): clearly superior
half life in liver, kidney, brain, heart and plasma [1, 11]: approximately three
increase in the concentration differential in tumour tissue to non-tumour tissue and plasma [1, 11]: approximately three
concentration of drug in plasma ([1]; intraperitoneal 8.9 mg/kg, mice, up to 75 hours): < 100 nmol/kg
AUC: increase in concentration in tumour tissue over liver tissue ([1]; mice): 6-7 fold
half-life ([1]; mouse, ip, colon 38 tumour tissue, intraperitoneal 8.9 mg/kg, mice): ~9 h
AUC values in plasma ([1]; relative to tissue AUC, mice): negligible
Activity [2]: Active
% control ([2]; P53 W.T., tumour volume T/C): 38%
Activity [3]: Inactive
% control ([3]; P53 Mutant, tumour volume T/C): 90%
Activity [4]: Active
% control [4, 12]: 38%
Activity [5]: Active
% control ([5]; P53 W.T., tumour volume T/C): 30%
Activity [6]: Inactive
% control [6, 12]: 50%
Activity [7]: Active
% control ([7]; P53 W.T., tumour volume T/C): 38%
Activity [8]: Active
% control [8, 12]: <10%
Activity [9]: Active
% control ([9]; P53 Null, tumour volume T/C): 28%
activity against colon 38 tumours ([10]; Rag1 immunodeficient mice, 5.9 mg/kg on days 0 and 7): attenuated
activity against colon 38 tumours ([10]; immunocompetent mice, single dose of 5.9 mg/kg intraperitoneally): active
